# System: WM3248 melanoma cells, 486 antibodies
# Assay: Reverse phase protein arrays (RPPA);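 as to RPPA ACC1.R.C: ratio of treated to vehicle (0 µM) normalized linear protein signal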;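 as to RPPA AMPK.a2 pS345.R.V: ratio of treated to vehicle (0 µM) normalized linear protein signal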;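 as to RPPA AMPKa pT172.R.C: ratio of treated to vehicle (0 µM) normalized linear protein signal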;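 as to RPPA ASNS.R.V: ratio of treated to vehicle (0 µM) normalized linear protein signal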;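 as to RPPA Akt1.R.V: ratio of treated to vehicle (0 µM) normalized linear protein signal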;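 as to RPPA Atg5.R.C: ratio of treated to vehicle (0 µM) normalized linear protein signal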;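 as to RPPA Bim.R.V: ratio of treated to vehicle (0 µM) normalized linear protein signal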
# Type: cell-based, Human
# Conditions: 10 uM
# From the text: Pellets were snap frozen in liquid nitrogen and shipped to MD Anderson Cancer Center core RPPA facility for RPPA analysis (Table S5). Three biological replicates for each sample were generated.
# Nomenclatures on the RPPA heatmaps: name_of_antibody.species_of_antibody.status_of_antibody. V - antibody validated; C - validation of antibody in progress; Q - antibody nonspecific; E – under evaluation; antibodies raised in M - mouse, G - goat, R - rabbit, or T - rat.
smiles,measurement,setting,value
"CN(C)c1cccc(Nc2cc(-c3ccccc3)nc(C3CCNCC3)n2)c1 [ARN22089, N1,N1-dimethyl-N3-(6-phenyl-2-(piperidin-4-yl)pyrimidin-4-yl)benzene-1,3-diamine]",RPPA level MTCO1.M.V,Average,0.952
same,RPPA level Mcl.1.R.V,Average,0.908
same,RPPA level MelanA.R.C,Average,0.925
same,RPPA level Merlin.R.C,Average,0.993
same,RPPA level Midkine.R.V,Average,1.001
same,RPPA level Mitofusin.1.R.V,Average,0.993
same,RPPA level Mitofusin.2.R.V,Average,0.945
same,RPPA level Mnk1.R.V,Average,0.956
same,RPPA level mTOR.R.V,Average,0.929
same,RPPA level mTOR_pS2448.R.C,Average,0.962
same,c.Jun_pS73.R.V RPPA level,Average,1.013
same,c.Kit.R.V RPPA level,Average,1.031
same,c.Met_pY1234_Y1235.R.V RPPA level,Average,0.982
same,c.Myc.R.C RPPA level,Average,1.334
same,cGAS.R.V RPPA level,Average,1.114
same,cdc2_pY15.R.C RPPA level,Average,0.967
same,cdc25C.R.V RPPA level,Average,0.900
same,RPPA A.Raf.R.V,C.1,0.924
same,RPPA A.Raf_pS299.R.C,C.1,1.052
same,RPPA ACC1.R.C,C.1,0.932
same,RPPA ACC_pS79.R.V,C.1,1.211
same,RPPA ACLY_pS455.R.V,C.1,1.216
same,RPPA ACVRL1.R.C,C.1,1.064
same,RPPA ADAR1.M.V,C.1,1.080
same,RPPA ALKBH5.R.V,C.1,1.056
same,RPPA AMPK.a2_pS345.R.V,C.1,0.962
same,RPPA AMPKa.R.C,C.1,0.981
same,RPPA AMPKa_pT172.R.C,C.1,2.354
same,RPPA AR.R.V,C.1,0.957
same,RPPA ARID1A.R.C,C.1,1.055
same,RPPA ASNS.R.V,C.1,0.968
same,RPPA ATM.R.V,C.1,0.876
same,RPPA ATM_pS1981.R.V,C.1,1.025
same,RPPA ATP5A.M.C,C.1,1.084
same,RPPA ATP5H.R.V,C.1,1.134
same,RPPA ATRX.R.C,C.1,0.823
same,RPPA AceCS1.R.V,C.1,1.056
same,RPPA Akt1.R.V,C.1,0.796
same,RPPA Akt1_pS473.R.V,C.1,0.792
same,RPPA Akt2.R.V,C.1,0.881
same,RPPA Akt2_pS474.R.C,C.1,0.939
same,RPPA Akt.R.V,C.1,0.872
same,RPPA Akt_pS473.R.V,C.1,0.917
same,RPPA Akt_pT308.R.V,C.1,0.810
same,RPPA Ambra1_pS52.R.C,C.1,1.060
same,RPPA Annexin.I.M.V,C.1,0.884
same,RPPA Annexin.VII.M.V,C.1,1.054
same,RPPA Atg3.R.V,C.1,0.850
same,RPPA Atg4B.R.C,C.1,0.734
same,RPPA Atg5.R.C,C.1,0.909
same,RPPA Atg7.R.V,C.1,0.713
same,RPPA Aurora.A.R.C,C.1,1.325
same,RPPA Aurora.ABC_pT288_pT232_pT198.R.C,C.1,1.697
same,RPPA Axl.R.V,C.1,0.673
same,RPPA B7.H3.R.C,C.1,0.862
same,RPPA B7.H4.R.C,C.1,0.874
same,RPPA B.Raf.R.C,C.1,0.709
same,RPPA B.Raf_pS445.R.V,C.1,0.874
same,RPPA BCL2A1.R.V,C.1,0.885
same,RPPA BMK1.Erk5_pT218_Y220.R.V,C.1,1.100
same,RPPA BRCA1.M.C,C.1,0.993
same,RPPA Bad_pS112.R.V,C.1,1.031
same,RPPA Bak.R.C,C.1,1.026
same,RPPA Bax.R.V,C.1,0.917
same,RPPA Bcl2.R.C,C.1,1.064
same,RPPA Bcl.xL.R.V,C.1,0.877
same,RPPA BiP.GRP78.M.C,C.1,0.971
same,RPPA Bid.R.C,C.1,0.858
same,RPPA Bim.R.V,C.1,0.886
same,RPPA X4E.BP1.R.V,C.1,1.220
same,RPPA X4E.BP1_pS65.R.V,C.1,0.985
same,RPPA X4E.BP1_pT37_T46.R.V,C.1,0.975
same,RPPA X14.3.3.zeta.R.V,C.1,1.026
same,RPPA X53BP1.R.V,C.1,0.922
same,RPPA b.Actin.R.C,C.1,0.996
same,RPPA b.Catenin_pT41_S45.R.V,C.1,0.984
same,RPPA c.Abl.R.V,C.1,1.031
same,RPPA c.Abl_pY412.R.C,C.1,0.928
same,RPPA c.IAP2.R.C,C.1,1.007
same,RPPA PREX1.R.V Average,average of 3,0.915
same,RPPA PTEN.R.V Average,average of 3,0.933
same,RPPA PTPN12.R.V Average,average of 3,0.962
same,RPPA PYGB.R.V Average,average of 3,1.021
same,RPPA PYGM.M.C Average,average of 3,1.025
same,RPPA Puma.R.C Average,average of 3,0.968
same,RPPA Pyk2_pY402.R.C Average,average of 3,0.960
same,RPPA RBM15.R.V Average,average of 3,0.873
same,RPPA RIP3.R.C Average,average of 3,0.948
same,RPPA RIP.R.C Average,average of 3,0.978
same,RPPA RPA32_pS4_S8.R.C Average,average of 3,1.083
same,RPPA RRM1.R.C Average,average of 3,0.916
same,RPPA RRM2.R.C Average,average of 3,0.917
same,RPPA RSK1.R.V Average,average of 3,0.967
same,RPPA RSK.R.C Average,average of 3,0.909
same,RPPA Rab11.R.C Average,average of 3,0.990
same,RPPA Rab25.R.V Average,average of 3,0.979
same,RPPA Rad17_pS645.R.V Average,average of 3,1.063
same,RPPA Rad23A.R.C Average,average of 3,0.920
same,RPPA Rad50.R.V Average,average of 3,0.991
same,RPPA Rad51.R.C Average,average of 3,1.083
same,RPPA Raptor.R.V Average,average of 3,0.939
same,RPPA Rb.M.Q Average,average of 3,1.024
same,RPPA Rb_pS807_S811.R.V Average,average of 3,0.952
same,RPPA Rheb.M.C Average,average of 3,1.056
same,RPPA Rictor.R.C Average,average of 3,0.955
same,RPPA Rictor_pT1135.R.V Average,average of 3,1.027
same,RPPA S6.M.V Average,average of 3,0.930
same,RPPA S6_pS235_S236.R.V Average,average of 3,0.713
same,RPPA S6_pS240_S244.R.V Average,average of 3,0.956
same,RPPA SCD.M.V Average,average of 3,1.034
same,RPPA SF2.R.V Average,average of 3,1.005
same,RPPA SFRP1.R.V Average,average of 3,0.965
same,RPPA SGK1.R.V Average,average of 3,1.012
same,RPPA SGK3.R.V Average,average of 3,1.035
same,RPPA SHP2.R.V Average,average of 3,1.004
same,RPPA SHP.2_pY542.R.C Average,average of 3,0.896
same,RPPA SIRPαR.V Average,average of 3,1.009
same,RPPA SLC1A5.R.C Average,average of 3,0.975
same,RPPA SOD1.M.V Average,average of 3,1.031
same,RPPA SOD2.R.V Average,average of 3,1.115
same,RPPA SOX7.R.V Average,average of 3,1.015
same,RPPA STING.R.V Average,average of 3,0.904
same,RPPA Shc_pY317.R.C Average,average of 3,1.847
same,RPPA Slfn11.G.C Average,average of 3,0.945
same,RPPA Smac.M.Q Average,average of 3,0.998
same,RPPA Smad1.R.V Average,average of 3,1.021
same,RPPA Smad3.R.V Average,average of 3,0.979
same,RPPA Snail.M.Q Average,average of 3,0.977
same,RPPA Sox2.R.V Average,average of 3,0.987
same,RPPA Sox17.R.V Average,average of 3,1.018
same,RPPA Src.M.V Average,average of 3,1.079
same,RPPA Src_pY416.R.V Average,average of 3,0.992
same,RPPA Src_pY527.R.V Average,average of 3,0.908
same,RPPA Stat1_pY701.R.V Average,average of 3,1.035
same,RPPA Stat3.R.C Average,average of 3,0.972
same,RPPA Stat3_pY705.R.C Average,average of 3,1.002
same,RPPA Stat5a.R.V Average,average of 3,0.958
same,RPPA TAZ.R.V Average,average of 3,0.958
same,RPPA TEAD.R.C Average,average of 3,0.967
same,RPPA TFAM.R.V Average,average of 3,0.914
same,RPPA TFRC.R.V Average,average of 3,0.926
same,RPPA TIGAR.R.V Average,average of 3,0.978
same,RPPA TRAP1.M.V Average,average of 3,1.032
same,RPPA TRIM25.R.C Average,average of 3,0.869
same,RPPA TRIP13.R.V Average,average of 3,1.026
same,RPPA Transglutaminase.M.V Average,average of 3,1.215
same,"RPPA signal, antibody TSC1.R.C, Average",average of 3 replicates,0.905
same,"RPPA signal, antibody TTF1.R.V, Average",average of 3 replicates,0.943
same,"RPPA signal, antibody TUFM.R.V, Average",average of 3 replicates,1.288
same,"RPPA signal, antibody Tuberin.R.V, Average",average of 3 replicates,0.933
same,"RPPA signal, antibody Tuberin_pT1462.R.V, Average",average of 3 replicates,1.050
same,"RPPA signal, antibody Twist.M.C, Average",average of 3 replicates,1.060
same,"RPPA signal, antibody Tyro3.R.V, Average",average of 3 replicates,1.231
same,"RPPA signal, antibody U.Histone.H2B.R.C, Average",average of 3 replicates,0.832
same,"RPPA signal, antibody UBAC1.R.V, Average",average of 3 replicates,0.948
same,"RPPA signal, antibody UBQLN4.M.C, Average",average of 3 replicates,0.975
same,"RPPA signal, antibody UGT1A.M.V, Average",average of 3 replicates,1.078
same,"RPPA signal, antibody ULK1_pS757.R.C, Average",average of 3 replicates,0.965
same,"RPPA signal, antibody UQCRC2.M.C, Average",average of 3 replicates,0.921
same,"RPPA signal, antibody UVRAG.R.C, Average",average of 3 replicates,0.967
same,"RPPA signal, antibody VASP.R.V, Average",average of 3 replicates,0.887
same,"RPPA signal, antibody VAV1.R.C, Average",average of 3 replicates,0.939
same,"RPPA signal, antibody VEGFR.2.R.V, Average",average of 3 replicates,0.919
